# Values quoted from earlier work, collected in patent US20250312497A1, “METHOD OF TREATING PROSTATE CANCER” (Novartis AG, priority 2022, published 2025).
# Key:
# [1] = system: docetaxel progressing metastatic castration-resistant prostate cancer; settings: randomized, 200 patients; P<0.0001; cited from earlier work
# [2] = system: mCRPC participants; settings: cited from earlier work
structure (smiles),measurement,setting,value
"O=C([O-])CN1CCN(CC(=O)[O-])CCN(CC(=O)NCC2CCC(C(=O)N[C@@H](Cc3ccc4ccccc4c3)C(=O)NCCCC[C@H](NC(=O)N[C@@H](CCC(=O)O)C(=O)O)C(=O)O)CC2)CCN(CC(=O)[O-])CC1.[177Lu+3] (stereo partly drawn) [[177Lu]Lu-PSMA-617, lutetium (177Lu) vipivotide tetraxetan]",proportion of patients with PSA decline >=50%,[1],66%
same,Grade 3/4 nephrotoxicity,[2]; literature,no reports of Grade 3/4 nephrotoxicity
same,rate of xerostomia in treated participants,"[2]; prospective study, low grade",approximately 87%
